Experimental data as given in US8906914B2, “Ethylene diamine modulators of fatty acid hydrolase” (priority 2009, dated 2014).
Where a name gives a salt, the structure may show the parent alone.

Experiments:
Rat FAAH-1 = biological target: T1, Rat FAAH-1 (Rattus norvegicus, UniProt P97612); experiment: Rat FAAH-1 assay (Assay Method 2), 3H-anandamide hydrolysis in cell homogenate; assay type: biochemical
T1 construct: expressed in transfected cells
T1 sequence (P97612 1-579): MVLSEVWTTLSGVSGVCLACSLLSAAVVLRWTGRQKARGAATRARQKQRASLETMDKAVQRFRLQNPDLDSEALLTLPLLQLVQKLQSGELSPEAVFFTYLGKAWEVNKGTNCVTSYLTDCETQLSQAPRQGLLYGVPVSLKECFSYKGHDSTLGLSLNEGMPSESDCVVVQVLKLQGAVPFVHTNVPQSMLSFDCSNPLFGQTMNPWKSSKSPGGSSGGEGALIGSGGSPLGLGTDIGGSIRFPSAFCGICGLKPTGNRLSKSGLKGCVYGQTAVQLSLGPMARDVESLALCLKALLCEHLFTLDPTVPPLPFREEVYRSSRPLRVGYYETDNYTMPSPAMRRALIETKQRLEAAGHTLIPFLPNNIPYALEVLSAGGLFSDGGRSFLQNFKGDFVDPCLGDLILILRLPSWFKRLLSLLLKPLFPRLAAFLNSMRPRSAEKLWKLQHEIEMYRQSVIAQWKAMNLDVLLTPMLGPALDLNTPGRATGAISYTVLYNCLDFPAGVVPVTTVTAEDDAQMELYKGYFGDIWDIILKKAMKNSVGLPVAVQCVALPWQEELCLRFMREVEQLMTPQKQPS
Experimental: A. Transfection of Cells with Rat FAAH-1
(§1) A 10-cm tissue culture dish with a confluent monolayer of SK-N-MC cells was split 2 days (d) prior to transfection. Using sterile technique, the media was removed and the cells were detached from the dish by the addition of trypsin. One fifth of the cells were then placed onto a new 10-cm dish. Cells were grown in a 37° C. incubator with 5% CO2 in Minimal Essential Media Eagle with 10% Fetal Bovine Serum. After 2 d, cells were approximately 80% confluent. These cells were removed from the dish with trypsin and pelleted in a clinical centrifuge. The pellet was re-suspended in 400 μL complete media and transferred to an electroporation cuvette with a 0.4 cm gap between the electrodes. Supercoiled rat FAAH cDNA (1 μg) was added to the cells and mixed. The voltage for the electroporation was set at 0.25 kV, and the capacitance was set at 960 μF. After electroporation, the cells were diluted into complete media (10 mL) and plated onto four 10-cm dishes. Because of the variability in the efficiency of electroporation, four different concentrations of cells were plated. The ratios used were 1:20, 1:10, and 1:5, with the remainder of the cells being added to the fourth dish. The cells were allowed to recover for 24 h before adding the selection media (complete media with 600 μg/mL G418). After 10 d, dishes were analyzed for surviving colonies of cells. Dishes with well-isolated colonies were used. Cells from individual colonies were isolated and tested.
(§2) The assay mixture consisted of 50 μL of the cell homogenate, 10 μL of the test compound, and 40 μL of anandamide [1-^3H-ethanolamine] (^3H-AEA, Perkin-Elmer, 10.3 Ci/mmol), which was added last, for a final tracer concentration of 80 nM. The reaction mixture was incubated at rt for 1 h. During the incubation, 96-well Multiscreen filter plates (catalog number MAFCNOB50; Millipore, Bedford, Mass., USA) were loaded with 25 μL of activated charcoal (Multiscreen column loader, catalog number MACL09625, Millipore) and washed once with 100 μL of MeOH. Also during the incubation, 96-well DYNEX MicroLite plates (catalog number NL510410) were loaded with 100 μL of MicroScint40 (catalog number 6013641, Packard Bioscience, Meriden, Conn., USA). After the 1 h incubation, 60 μL of the reaction mixture were transferred to the charcoal plates, which were then assembled on top of the DYNEX plates using Centrifuge Alignment Frames (catalog number MACF09604, Millipore). The unbound labeled ethanolamine was centrifuged through to the bottom plate (5 min at 2000 rpm), which was preloaded with the scintillant, as described above. The plates were sealed and left at rt for 1 h before counting on a Hewlett Packard TopCount.
(§3) Where activity is shown as greater than (>) a particular value, the value is the solubility limit of the compound in the assay medium or the highest concentration tested in the assay.

FAAH = biological target: T2, FAAH (Homo sapiens, UniProt O00519); experiment: Human FAAH assay (Assay Method 1), 3H-anandamide hydrolysis in cell homogenate; assay type: biochemical; parameters: expressed in transfected cells; alternatively T84 frozen cell pellets (endogenous FAAH)
T2 sequence (O00519 1-579): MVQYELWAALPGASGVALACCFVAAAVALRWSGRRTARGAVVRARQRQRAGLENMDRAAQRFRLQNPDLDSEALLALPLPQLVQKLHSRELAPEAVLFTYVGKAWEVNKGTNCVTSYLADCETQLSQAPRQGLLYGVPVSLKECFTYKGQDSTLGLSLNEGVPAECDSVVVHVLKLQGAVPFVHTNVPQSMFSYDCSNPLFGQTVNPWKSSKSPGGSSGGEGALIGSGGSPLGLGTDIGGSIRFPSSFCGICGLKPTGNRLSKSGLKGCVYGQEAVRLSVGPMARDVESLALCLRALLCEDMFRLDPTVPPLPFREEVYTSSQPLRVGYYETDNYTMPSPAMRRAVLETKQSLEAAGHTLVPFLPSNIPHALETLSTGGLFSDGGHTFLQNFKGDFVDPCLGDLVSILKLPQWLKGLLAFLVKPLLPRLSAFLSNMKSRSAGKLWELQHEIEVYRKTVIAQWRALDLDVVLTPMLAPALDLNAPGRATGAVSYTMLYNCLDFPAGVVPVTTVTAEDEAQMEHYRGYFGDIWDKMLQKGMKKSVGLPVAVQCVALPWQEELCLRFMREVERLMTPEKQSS
Experimental: A. Transfection of Cells with Human FAAH
as §1, with “Supercoiled human” for “Supercoiled rat”
as §2, with “[1-3H-ethanolamine]” for “[1-^3H-ethanolamine]”
as §3

`N[C@@H](CNc1cc(-c2ccc(C(F)(F)F)c(Cl)c2)ncn1)c1ccc(C(F)(F)F)cc1` [Example 30, (1R)—N^2-[6-(3-Chloro-4-trifluoromethyl-phenyl)-pyrimidin-4-yl]-1-(4-trifluoromethyl-phenyl)-ethane-1,2-diamine] gave an IC50 (Rat FAAH-1) of 52 nM and an IC50 (FAAH) of 160 nM.

For `N[C@@H](CNc1cc(-c2ccc(C(F)(F)F)c(Cl)c2)ncn1)c1ccc2c(c1)OC(F)(F)O2` [Example 32, (1R)—N^2-[6-(3-Chloro-4-trifluoromethyl-phenyl)-pyrimidin-4-yl]-1-(2,2-difluoro-benzo[1,3]dioxol-5-yl)-ethane-1,2-diamine], the IC50 (Rat FAAH-1) was 11 nM and the IC50 (FAAH) was 30 nM.

`N[C@H](CNc1cc(-c2ccc(C(F)(F)F)c(Cl)c2)ncn1)c1ccccc1` [Example 3, (1S)—N^2-{6-[3-Chloro-4-(trifluoromethyl)phenyl]pyrimidin-4-yl}-1-phenylethane-1,2-diamine hydrochloride acid salt] showed an IC50 (Rat FAAH-1) of 2400 nM and an IC50 (FAAH) of 1300 nM.

Compound `N#Cc1ccc([C@H](N)CNc2cc(-c3ccc(C(F)(F)F)c(Cl)c3)ncn2)cc1` [Example 33, (1S)-4-{1-Amino-2-[6-(3-chloro-4-trifluoromethyl-phenyl)-pyrimidin-4-ylamino]-ethyl}-benzonitrile] has an IC50 (Rat FAAH-1) of 1000 nM and an IC50 (FAAH) of 570 nM.

Compound `N[C@@H](CNc1cc(-c2cc(F)c(OC(F)F)c(F)c2)ncn1)c1ccccc1` [Example 12, (1R)—N^2-{6-[4-(Difluoromethoxy)-3,5-difluorophenyl]pyrimidin-4-yl}-1-phenylethane-1,2-diamine hydrochloride acid salt] has an IC50 (Rat FAAH-1) of 100 nM and an IC50 (FAAH) of 12 nM.

Compound `COc1ccccc1[C@@H](N)CNc1cc(-c2ccc(C(F)(F)F)c(Cl)c2)ncn1` [Example 56, (1R)—N^2-[6-(3-Chloro-4-trifluoromethyl-phenyl)-pyrimidin-4-yl]-1-(2-methoxy-phenyl)-ethane-1,2-diamine] has an IC50 (Rat FAAH-1) of 6000 nM and an IC50 (FAAH) of 1200 nM.

`N[C@@H](CNc1cc(-c2ccc(C(F)(F)F)c(Cl)c2)ncn1)c1ccc(Cl)c(Cl)c1` [Example 43, (1R)—N^2-[6-(3-Chloro-4-trifluoromethyl-phenyl)-pyrimidin-4-yl]-1-(3,4-dichloro-phenyl)-ethane-1,2-diamine] showed an IC50 (Rat FAAH-1) of 95 nM and an IC50 (FAAH) of 200 nM.

Compound `CC(C)(C)OC(=O)N[C@@H](CNc1cc(-c2ccc(C(F)(F)F)c(Cl)c2)ncn1)c1ccccc1` [Example 2, (1R)-{2-[6-(3-Chloro-4-trifluoromethyl-phenyl)-pyrimidin-4-ylamino]-1-phenyl-ethyl}-carbamic acid tert-butyl ester] has an IC50 (Rat FAAH-1) of 8000 nM and an IC50 (FAAH) of 330 nM.

`N[C@@H](CNc1cc(-c2cc3cc(OC(F)(F)F)ccc3s2)ncn1)c1ccccc1` [Example 25, (1R)-1-Phenyl-N^2-{6-[5-(trifluoromethoxy)-1-benzothiophen-2-yl]pyrimidin-4-yl}ethane-1,2-diamine hydrochloride acid salt] showed an IC50 (Rat FAAH-1) of 370 nM and an IC50 (FAAH) of 80 nM.

In the case of `N[C@@H](CNc1cc(-c2ccc(C(F)(F)F)cc2)ncn1)c1ccccc1` [Example 5, (1R)-1-Phenyl-N^2-{6-[4-(trifluoromethyl)phenyl]pyrimidin-4-yl}ethane-1,2-diamine hydrochloride acid salt], the IC50 (Rat FAAH-1) is reported as 1000 nM and the IC50 (FAAH) is reported as 130 nM.

`CSc1ccc([C@@H](N)CNc2cc(-c3ccc(C(F)(F)F)c(Cl)c3)ncn2)cc1` [Example 54, (1R)—N^2-[6-(3-Chloro-4-trifluoromethyl-phenyl)-pyrimidin-4-yl]-1-(4-methylsulfanyl-phenyl)-ethane-1,2-diamine] was tested, and the IC50 (Rat FAAH-1) was 150 nM and the IC50 (FAAH) was 220 nM.

With `N[C@@H](CNc1cc(-c2ccc(C(F)(F)F)c(Cl)c2)ncn1)c1ccccc1` [Example 1, (1R)—N^2-{6-[3-Chloro-4-(trifluoromethyl)phenyl]pyrimidin-4-yl}-1-phenylethane-1,2-diamine hydrochloride acid salt] the IC50 (Rat FAAH-1) was 60 nM and the IC50 (FAAH) was 50 nM.

In the case of `N[C@H](CNc1cc(-c2ccc(C(F)(F)F)c(Cl)c2)ncn1)c1ccc(Cl)c(Cl)c1` [Example 42, (1S)—N^2-[6-(3-Chloro-4-trifluoromethyl-phenyl)-pyrimidin-4-yl]-1-(3,4-dichloro-phenyl)-ethane-1,2-diamine], the IC50 (Rat FAAH-1) is reported as 5000 nM and the IC50 (FAAH) is reported as 8000 nM.

`NC(CNc1cc(-c2ccc(C(F)(F)F)c(Cl)c2)ncn1)c1ccccc1F` (centres unmarked) [Example 35, N^2-[6-(3-Chloro-4-trifluoromethyl-phenyl)-pyrimidin-4-yl]-1-(2-fluoro-phenyl)-ethane-1,2-diamine] showed an IC50 (Rat FAAH-1) of 280 nM and an IC50 (FAAH) of 170 nM.

`N[C@@H](CNc1cc(-c2cccc(Cl)c2)ncn1)c1ccccc1` [Example 15, (1R)—N^2-[6-(3-Chlorophenyl)pyrimidin-4-yl]-1-phenylethane-1,2-diamine hydrochloride acid salt] was tested, and the IC50 (FAAH) was 1000 nM.
